Experimental data as given in BigSolDB 2.1.

CC(=O)c1c(C)cc(C(C)(C)C)cc1C
solubility (mole fraction)
Details | in acetone | in acetonitrile | in cyclohexane | in ethanol | in ethyl acetate | in isopropanol | in methanol | in n-octanol
273.15 K | 0.308 | 0.188 | 0.279 | 0.0701 | 0.376 | 0.073 | 0.0607 | 0.123
278.15 K | 0.346 | 0.235 | 0.337 | 0.095 | 0.427 | 0.101 | 0.0828 | 0.161
283.15 K | 0.393 | 0.291 | 0.407 | 0.14 | 0.479 | 0.146 | 0.116 | 0.205
288.15 K | 0.445 | 0.355 | 0.48 | 0.196 | 0.539 | 0.206 | 0.16 | 0.27
293.15 K | 0.505 | 0.428 | 0.56 | 0.27 | 0.603 | 0.288 | 0.228 | 0.354
298.15 K | 0.568 | 0.521 | 0.645 | 0.37 | 0.673 | 0.391 | 0.339 | 0.46
303.15 K | 0.64 | 0.623 | 0.735 | 0.52 | 0.741 | 0.542 | 0.478 | 0.6
308.15 K | 0.728 | 0.739 | 0.832 | 0.705 | 0.817 | 0.729 | 0.667 | 0.761
